# In PubChem BioAssay (NCI):
#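 Method: 48-hour compound exposure of cells in 96-well plates, five concentrations, linear interpolation of endpoints. Here, GI50 denotes the concentration required for 50% inhibition of growth. TGI marks complete inhibition of growth.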
# Columns and labels:
# Experiment in all cases: NCI tumour cell line growth inhibition, 48 h
# 786-0 renal = test system: 786-0 renal
# A498 renal = test system: A498 renal
# A549 NSCLC = test system: A549 NSCLC
# ACHN renal = test system: ACHN renal
# BT-549 breast = test system: BT-549 breast
# CAKI-1 renal = test system: CAKI-1 renal
# CCRF-CEM leukemia = test system: CCRF-CEM leukemia
# COLO 205 colon = test system: COLO 205 colon
# DU-145 prostate = test system: DU-145 prostate
# EKVX NSCLC = test system: EKVX NSCLC
# HCC-2998 colon = test system: HCC-2998 colon
# HCT-116 colon = test system: HCT-116 colon
# HCT-15 colon = test system: HCT-15 colon
# HL-60(TB) leukemia = test system: HL-60(TB) leukemia
# HOP-62 NSCLC = test system: HOP-62 NSCLC
# HOP-92 NSCLC = test system: HOP-92 NSCLC
# HS 578T breast = test system: HS 578T breast
# HT29 colon = test system: HT29 colon
# IGROV1 ovarian = test system: IGROV1 ovarian
# K-562 leukemia = test system: K-562 leukemia
# LOX IMVI melanoma = test system: LOX IMVI melanoma
# M14 melanoma = test system: M14 melanoma
# MALME-3M melanoma = test system: MALME-3M melanoma
# MCF7 breast = test system: MCF7 breast
# MDA-MB-231 breast = test system: MDA-MB-231 breast
# MDA-MB-435 = test system: MDA-MB-435
# MOLT-4 leukemia = test system: MOLT-4 leukemia
# NCI-H226 lung = test system: NCI-H226 lung
# NCI-H23 lung = test system: NCI-H23 lung
# NCI-H460 lung = test system: NCI-H460 lung
# NCI-H522 lung = test system: NCI-H522 lung
# NCI/ADR-RES ovarian = test system: NCI/ADR-RES ovarian
# OVCAR-3 ovarian = test system: OVCAR-3 ovarian
# OVCAR-4 ovarian = test system: OVCAR-4 ovarian
# OVCAR-5 ovarian = test system: OVCAR-5 ovarian
# OVCAR-8 ovarian = test system: OVCAR-8 ovarian
# PC-3 prostate = test system: PC-3 prostate
# RPMI-8226 leukemia = test system: RPMI-8226 leukemia
# RXF 393 renal = test system: RXF 393 renal
# SF-268 CNS = test system: SF-268 CNS
# SF-295 CNS = test system: SF-295 CNS
# SF-539 CNS = test system: SF-539 CNS
# SK-MEL-2 melanoma = test system: SK-MEL-2 melanoma
# SK-MEL-28 melanoma = test system: SK-MEL-28 melanoma
# SK-MEL-5 melanoma = test system: SK-MEL-5 melanoma
# SK-OV-3 ovarian = test system: SK-OV-3 ovarian
# SN12C renal = test system: SN12C renal
# SNB-19 CNS = test system: SNB-19 CNS
# SNB-75 CNS = test system: SNB-75 CNS
# SR leukemia = test system: SR leukemia
# SW-620 colon = test system: SW-620 colon
# T-47D breast = test system: T-47D breast
# TK-10 renal = test system: TK-10 renal
# U251 CNS = test system: U251 CNS
# UACC-257 melanoma = test system: UACC-257 melanoma
# UACC-62 melanoma = test system: UACC-62 melanoma
# UO-31 renal = test system: UO-31 renal
compound,measurement,setting,value
CCOC(=O)/C(C1=CC(=O)C(=O)c2ccccc21)=C(/C)NCc1ccccc1,GI50,786-0 renal,1290 nM
same,TGI,786-0 renal,2880 nM
same,GI50,A498 renal,4770 nM
same,TGI,A498 renal,10400 nM
same,GI50,A549 NSCLC,2400 nM
same,TGI,A549 NSCLC,6420 nM
same,GI50,ACHN renal,2280 nM
same,TGI,ACHN renal,4750 nM
same,GI50,BT-549 breast,3290 nM
same,TGI,BT-549 breast,6180 nM
same,GI50,CAKI-1 renal,1610 nM
same,TGI,CAKI-1 renal,3580 nM
same,GI50,CCRF-CEM leukemia,14.4 nM
same,TGI,CCRF-CEM leukemia,64.9 nM
same,GI50,COLO 205 colon,2010 nM
same,TGI,COLO 205 colon,4540 nM
same,GI50,DU-145 prostate,1790 nM
same,TGI,DU-145 prostate,3320 nM
same,GI50,EKVX NSCLC,2330 nM
same,TGI,EKVX NSCLC,5060 nM
same,GI50,HCC-2998 colon,2850 nM
same,TGI,HCC-2998 colon,8200 nM
same,GI50,HCT-116 colon,1520 nM
same,TGI,HCT-116 colon,2850 nM
same,GI50,HCT-15 colon,1750 nM
same,TGI,HCT-15 colon,3600 nM
same,GI50,HL-60(TB) leukemia,453 nM
same,TGI,HL-60(TB) leukemia,2250 nM
same,GI50,HOP-62 NSCLC,1560 nM
same,TGI,HOP-62 NSCLC,3440 nM
same,GI50,HOP-92 NSCLC,1400 nM
same,TGI,HOP-92 NSCLC,3520 nM
same,GI50,HS 578T breast,2540 nM
same,TGI,HS 578T breast,6960 nM
same,GI50,HT29 colon,4360 nM
same,TGI,HT29 colon,> 100000 nM
same,GI50,IGROV1 ovarian,1050 nM
same,GI50,K-562 leukemia,1300 nM
same,TGI,K-562 leukemia,3240 nM
same,GI50,LOX IMVI melanoma,1150 nM
same,TGI,LOX IMVI melanoma,2360 nM
same,GI50,M14 melanoma,1710 nM
same,TGI,M14 melanoma,3170 nM
same,GI50,MALME-3M melanoma,1660 nM
same,TGI,MALME-3M melanoma,3570 nM
same,GI50,MCF7 breast,2050 nM
same,TGI,MCF7 breast,4750 nM
same,GI50,MDA-MB-231 breast,1370 nM
same,TGI,MDA-MB-231 breast,3280 nM
same,GI50,MDA-MB-435,226 nM
same,TGI,MDA-MB-435,476 nM
same,GI50,MOLT-4 leukemia,182 nM
same,TGI,MOLT-4 leukemia,434 nM
same,GI50,NCI-H226 lung,2620 nM
same,TGI,NCI-H226 lung,6380 nM
same,GI50,NCI-H23 lung,1850 nM
same,TGI,NCI-H23 lung,3710 nM
same,GI50,NCI-H460 lung,3230 nM
same,TGI,NCI-H460 lung,12000 nM
same,GI50,NCI-H522 lung,1220 nM
same,GI50,NCI/ADR-RES ovarian,2020 nM
same,TGI,NCI/ADR-RES ovarian,5080 nM
same,GI50,OVCAR-3 ovarian,218 nM
same,TGI,OVCAR-3 ovarian,935 nM
same,GI50,OVCAR-4 ovarian,3120 nM
same,TGI,OVCAR-4 ovarian,56700 nM
same,GI50,OVCAR-5 ovarian,2430 nM
same,TGI,OVCAR-5 ovarian,6690 nM
same,GI50,OVCAR-8 ovarian,3690 nM
same,TGI,OVCAR-8 ovarian,9500 nM
same,GI50,PC-3 prostate,1230 nM
same,TGI,PC-3 prostate,2480 nM
same,GI50,RPMI-8226 leukemia,184 nM
same,TGI,RPMI-8226 leukemia,432 nM
same,GI50,RXF 393 renal,186 nM
same,TGI,RXF 393 renal,1730 nM
same,GI50,SF-268 CNS,1640 nM
same,TGI,SF-268 CNS,3430 nM
same,GI50,SF-295 CNS,1760 nM
same,TGI,SF-295 CNS,3680 nM
same,GI50,SF-539 CNS,1060 nM
same,TGI,SF-539 CNS,2650 nM
same,GI50,SK-MEL-2 melanoma,5870 nM
same,TGI,SK-MEL-2 melanoma,> 100000 nM
same,GI50,SK-MEL-28 melanoma,3020 nM
same,TGI,SK-MEL-28 melanoma,7320 nM
same,GI50,SK-MEL-5 melanoma,1780 nM
same,TGI,SK-MEL-5 melanoma,3380 nM
same,GI50,SK-OV-3 ovarian,2170 nM
same,TGI,SK-OV-3 ovarian,4880 nM
same,GI50,SN12C renal,2120 nM
same,TGI,SN12C renal,5090 nM
same,GI50,SNB-19 CNS,3240 nM
same,TGI,SNB-19 CNS,> 100000 nM
same,GI50,SNB-75 CNS,3110 nM
same,TGI,SNB-75 CNS,55500 nM
same,GI50,SR leukemia,127 nM
same,TGI,SR leukemia,274 nM
same,GI50,SW-620 colon,1640 nM
same,TGI,SW-620 colon,3300 nM
same,GI50,T-47D breast,2270 nM
same,TGI,T-47D breast,> 100000 nM
same,GI50,TK-10 renal,1720 nM
same,TGI,TK-10 renal,3510 nM
same,GI50,U251 CNS,606 nM
same,GI50,UACC-257 melanoma,2560 nM
same,TGI,UACC-257 melanoma,10900 nM
same,GI50,UACC-62 melanoma,2020 nM
same,TGI,UACC-62 melanoma,3910 nM
same,GI50,UO-31 renal,3350 nM
same,TGI,UO-31 renal,> 100000 nM
